Results reported in PubChem BioAssay AID250 (DTP/NCI, 2004).
Where “and” joins values, the source holds several entries; their conditions need not be identical. Identical values can stand only once. Toxic doses and inconclusive results are not listed.

Test system: BDF1 mice, L1210 leukemia sc, survival T/C
Assay: NCI In Vivo Anticancer Drug Screen. Data for tumor model L1210 Leukemia (subcutaneous) in B6D2F1 (BDF1) mice
Details: endpoint: median survival time, higher = longer survival
How it was run: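 Expressed as T/C: measurement in compound-treated, tumor-bearing mice relative to vehicle-treated control mice, based on survival or tumor size.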

[1] = dose: 0.65 mg/kg/injection, schedule: Q01DX Z (sc), vehicle: methylcellulose (MC)
[2] = dose: 1.08 mg/kg/injection, schedule: Q01DX Z (sc), vehicle: methylcellulose (MC)
[3] = dose: 3.0 mg/kg/injection, schedule: Q01DX Z (sc), vehicle: methylcellulose (MC)
[4] = dose: 108.0 mg/kg/injection, schedule: Q01DX Z (sc), vehicle: methylcellulose (MC)

Compound: Nc1nc(=S)c2[nH]cnc2[nH]1
- T/C (dose: 0.37 mg/kg/injection, schedule: Q01DX009 (sc), vehicle: other): 100 % of control and 102 % of control
- T/C (dose: 0.47 mg/kg/injection, schedule: Q01DX Z (sc), vehicle: methylcellulose (MC)): 104 % of control and 110 % of control
- T/C [1]: 100 % of control
- T/C (dose: 0.75 mg/kg/injection, schedule: Q01DX009 (sc), vehicle: other): 110 % of control and 111 % of control
- T/C (dose: 0.78 mg/kg/injection, schedule: Q01DX Z (sc), vehicle: methylcellulose (MC)): 100 % of control and 120 % of control
- T/C (dose: 1.0 mg/kg/injection, schedule: Q01DX Z (sc), vehicle: other): 100 % of control
- T/C [2]: 109 % of control
- T/C (dose: 1.3 mg/kg/injection, schedule: Q01DX Z (sc), vehicle: methylcellulose (MC)): 118 % of control
- T/C (dose: 1.5 mg/kg/injection, schedule: Q01DX009 (sc), vehicle: other): 150 % of control
- T/C (dose: 1.5 mg/kg/injection, schedule: Q## X009 (sc), vehicle: other): 150 % of control
- T/C (dose: 1.8 mg/kg/injection, schedule: Q01DX Z (oral), vehicle: methylcellulose (MC)): 109 % of control
- T/C (dose: 2.0 mg/kg/injection, schedule: Q02DX Z (sc), vehicle: other): 118 % of control
- T/C (dose: 2.16 mg/kg/injection, schedule: Q01DX Z (oral), vehicle: methylcellulose (MC)): 109 % of control
- T/C (dose: 2.5 mg/kg/injection, schedule: Q02DX009 (sc), vehicle: other): 152 % of control
- T/C (dose: 2.5 mg/kg/injection, schedule: Q02DX Z (sc), vehicle: other): 155 % of control
- T/C (dose: 3.0 mg/kg/injection, schedule: Q01DX009 (sc), vehicle: other): 150 % of control and 152 % of control and 156 % of control
- T/C (dose: 3.0 mg/kg/injection, schedule: Q01DX Z (oral), vehicle: methylcellulose (MC)): 118 % of control
- T/C [3]: 154 % of control
- T/C (dose: 3.0 mg/kg/injection, schedule: Q## X009 (sc), vehicle: other): 152 % of control
- T/C (dose: 3.6 mg/kg/injection, schedule: Q01DX Z (oral), vehicle: methylcellulose (MC)): 109 % of control
- T/C (dose: 3.6 mg/kg/injection, schedule: Q01DX Z (sc), vehicle: methylcellulose (MC)): 150 % of control
- T/C (dose: 4.0 mg/kg/injection, schedule: Q02DX Z (sc), vehicle: other): 159 % of control
- T/C (dose: 5.0 mg/kg/injection, schedule: Q01DX Z (sc), vehicle: methylcellulose (MC)): 154 % of control
- T/C (dose: 5.0 mg/kg/injection, schedule: Q02DX009 (sc), vehicle: other): 165 % of control
- T/C (dose: 5.0 mg/kg/injection, schedule: Q02DX Z (sc), vehicle: other): 172 % of control
- T/C (dose: 6.0 mg/kg/injection, schedule: Q01DX009 (sc), vehicle: other): 155 % of control and 162 % of control
- T/C (dose: 6.0 mg/kg/injection, schedule: Q01DX Z (oral), vehicle: methylcellulose (MC)): 113 % of control
- T/C (dose: 6.0 mg/kg/injection, schedule: Q01DX Z (sc), vehicle: methylcellulose (MC)): 150 % of control
- T/C (dose: 8.0 mg/kg/injection, schedule: Q01DX Z (sc), vehicle: other): 154 % of control
- T/C (dose: 8.0 mg/kg/injection, schedule: Q02DX Z (sc), vehicle: other): 154 % of control
- T/C (dose: 8.4 mg/kg/injection, schedule: Q01DX Z (oral), vehicle: methylcellulose (MC)): 163 % of control
- T/C (dose: 10.0 mg/kg/injection, schedule: Q01DX Z (oral), vehicle: methylcellulose (MC)): 118 % of control
- T/C (dose: 10.0 mg/kg/injection, schedule: Q01DX Z (sc), vehicle: methylcellulose (MC)): 150 % of control
- T/C (dose: 10.0 mg/kg/injection, schedule: Q02DX009 (sc), vehicle: other): 160 % of control
- T/C (dose: 10.0 mg/kg/injection, schedule: Q02DX Z (sc), vehicle: other): 166 % of control
- T/C (dose: 16.0 mg/kg/injection, schedule: Q02DX Z (sc), vehicle: other): 150 % of control
- T/C (dose: 17.0 mg/kg/injection, schedule: Q01DX Z (oral), vehicle: methylcellulose (MC)): 118 % of control
- T/C (dose: 20.0 mg/kg/injection, schedule: Q02DX Z (sc), vehicle: other): 150 % of control
- T/C (dose: 28.0 mg/kg/injection, schedule: Q01DX Z (oral), vehicle: methylcellulose (MC)): 104 % of control
- T/C (dose: 32.0 mg/kg/injection, schedule: Q02DX Z (sc), vehicle: other): 154 % of control
- T/C (dose: 39.0 mg/kg/injection, schedule: Q01DX Z (oral), vehicle: methylcellulose (MC)): 154 % of control
- T/C (dose: 40.0 mg/kg/injection, schedule: Q02DX Z (sc), vehicle: other): 155 % of control
- T/C (dose: 47.0 mg/kg/injection, schedule: Q01DX Z (oral), vehicle: methylcellulose (MC)): 109 % of control

Compound: CCc1nc(N)nc(N)c1-c1ccc(Cl)cc1
- T/C [4]: 118 % of control

Compound: CCN1C=C/C(=C\C=C/c2cc[n+](CC)c3ccccc23)c2ccccc21
- T/C (dose: 0.05 mg/kg/injection, schedule: Q01DX Z (sc), vehicle: methylcellulose (MC)): 100 % of control
- T/C (dose: 0.08 mg/kg/injection, schedule: Q01DX Z (sc), vehicle: methylcellulose (MC)): 100 % of control
- T/C (dose: 0.14 mg/kg/injection, schedule: Q01DX Z (sc), vehicle: methylcellulose (MC)): 100 % of control
- T/C (dose: 0.23 mg/kg/injection, schedule: Q01DX Z (sc), vehicle: methylcellulose (MC)): 100 % of control
- T/C (dose: 0.39 mg/kg/injection, schedule: Q01DX Z (sc), vehicle: methylcellulose (MC)): 100 % of control
- T/C [1]: 100 % of control
- T/C [2]: 100 % of control
- T/C (dose: 1.8 mg/kg/injection, schedule: Q01DX Z (sc), vehicle: methylcellulose (MC)): 111 % of control
- T/C [3]: 105 % of control

Compound: C1CN1c1nc(N2CC2)nc(N2CC2)n1
- T/C (dose: 0.23 mg/kg/injection, schedule: Q01DX Z (sc), vehicle: saline): 100 % of control
- T/C (dose: 0.39 mg/kg/injection, schedule: Q01DX Z (sc), vehicle: saline): 104 % of control and 105 % of control
- T/C (dose: 0.65 mg/kg/injection, schedule: Q01DX Z (sc), vehicle: saline): 112 % of control and 115 % of control
- T/C (dose: 1.08 mg/kg/injection, schedule: Q01DX Z (sc), vehicle: saline): 160 % of control
- T/C (dose: 3.0 mg/kg/injection, schedule: Q01DX Z (sc), vehicle: saline): 108 % of control
- T/C (dose: 5.0 mg/kg/injection, schedule: Q01DX Z (sc), vehicle: saline): 104 % of control and 120 % of control

Compound: Nc1nc(=S)c2ncn(C3CC(O)C(CO)O3)c2[nH]1 (stereo unspecified)
- T/C (dose: 9.0 mg/kg/injection, schedule: Q02DX005 (sc), vehicle: saline): 160 % of control
- T/C (dose: 12.5 mg/kg/injection, schedule: Q02DX005 (sc), vehicle: saline): 177 % of control
- T/C (dose: 18.0 mg/kg/injection, schedule: Q02DX005 (sc), vehicle: saline): 162 % of control
- T/C (dose: 25.0 mg/kg/injection, schedule: Q02DX005 (sc), vehicle: saline): 177 % of control
- T/C (dose: 37.0 mg/kg/injection, schedule: Q02DX005 (sc), vehicle: saline): 152 % of control
- T/C (dose: 50.0 mg/kg/injection, schedule: Q01DX009 (sc), vehicle: saline): 100 % of control and 103 % of control
- T/C (dose: 50.0 mg/kg/injection, schedule: Q02DX005 (sc), vehicle: saline): 177 % of control
- T/C (dose: 100.0 mg/kg/injection, schedule: Q01DX009 (sc), vehicle: saline): 105 % of control and 108 % of control
- T/C (dose: 100.0 mg/kg/injection, schedule: Q02DX005 (sc), vehicle: saline): 150 % of control
- T/C (dose: 150.0 mg/kg/injection, schedule: Q02DX005 (sc), vehicle: saline): 120 % of control
- T/C (dose: 200.0 mg/kg/injection, schedule: Q01DX009 (sc), vehicle: saline): 122 % of control
- T/C (dose: 400.0 mg/kg/injection, schedule: Q01DX009 (sc), vehicle: saline): 155 % of control
- T/C (dose: 600.0 mg/kg/injection, schedule: Q02DX005 (sc), vehicle: saline): 158 % of control

Compound: CCC(C)SC1=NC=NC2=NC=NC21 (stereo unspecified)
- T/C (dose: 38.9 mg/kg/injection, schedule: Q01DX Z (sc), vehicle: methylcellulose (MC)): 109 % of control
- T/C [4]: 150 % of control
- T/C (dose: 500.0 mg/kg/injection, schedule: Q01DX Z (sc), vehicle: methylcellulose (MC)): 100 % of control
- T/C (dose: 833.0 mg/kg/injection, schedule: Q01DX Z (sc), vehicle: methylcellulose (MC)): 100 % of control
